{"source": "patent US8019412B2", "about": "“Apparatus for facilitating transdermal delivery of therapeutic substances and method of transdermally delivering therapeutic substances” (International Scientific Pty Ltd., priority 2003, dated 2011)", "system": "excised human epidermal membranes", "format": "in vitro ADME", "from_the_text": "In an experimental example, penetration of caffeine through excised human epidermal membranes was investigated using Franz-type diffusion cells and standard procedures. An electromagnetic field pattern was created and the penetration results compared with passive diffusion. The electromagnetic field pattern used was generated by applying an energisation signal having 12 pulses at a repeating frequency of 10 Hz to a coil Each of the pulses has a duration of approximately 360 μs. A phosphate buffered saline receptor solution was used and the amount of caffeine in the receptor solution determined by HPLC with UV detection at regular time intervals up to 6 hours post application of the electromagnetic field. In this example, the electromagnetic field pattern was applied for approximately 30 minutes.\nSimilar experiments were carried out with electromagnetic fields generated by applying an energisation signal having 15 pulses of 360 μs duration at a repeating frequency of 20 Hz to a coil, and by applying an energisation signal having 255 pulses at a repeating frequency of 2 Hz to a coil. These experiments yielded caffeine flux values of 7.20 μgcm^−2h^−1 and 8.51 μgcm^−2h^−1, although the latter of these experiments produced an effect only after 60 minutes.\nA further experiment was carried out by applying an energisation signal having a single quasi-rectangular pulse repeated at 72 Hz to a coil.", "data": [{"smiles": "Cn1c(=O)c2c(ncn2C)n(C)c1=O", "note": "[caffeine]", "values": [{"measurement": "caffeine flux associated with passive diffusion", "value": "~4.1", "unit": "μgcm^−2h^−1"}, {"measurement": "highest caffeine flux achieved with electromagnetic field pattern", "value": 19.24, "unit": "μgcm^−2h^−1"}, {"measurement": "time after which an effect was produced", "value": "≥ 60", "unit": "min"}]}]}
